Source: patent US20260139017A1, “COMPOSITIONS AND METHODS USING REELIN IN ALZHEIMER'S DISEASE” (The General Hospital Corporation, priority 2022, published 2026)
“Also recorded” adds a separate entry of the source.

Experiments:
[1] = test system: human retinal endothelial cells; experiment: GFP mRNA cargo uptake with CTR peptide in retinal endothelial cells; format: cell-based; conditions: 5 μg mRNA mixed with peptide, 24 hours
Method: To evaluate this, HMRECs were cultured in a 24 well plate until 80% confluency complete endothelial growth media 2 (EGM-2, Lonza, Switzerland). For the treatments, 5 μg of mRNA were added to all the formulations. We prepared mRNA/peptide conjugates by mixing each amount of peptide ([…]) (SEQ ID NO:59) and mRNA prior to dilution in EGM-2. HMRECs were cultured with treatment media for 24 hours followed by fluorescence measurements in a microplate reader Synergy H1 (Biotek, VT) upon exciting at 482 nm and recording emission at 520 nm.

[2] = test system: pDAB1 (Tyr232); experiment: HRECs treated 5 minutes with HEK 293T-derived mini-RELN media, pDAB1 western blot; format: cell-based, human; conditions: HEK 293T-derived media 1:1, 1:4, 1:14, 5 minutes
Method: The effect of in vitro treatment with RELN or miniRELN protein was also evaluated. HRECs were cultured in EBM-2 media enriched with EGM-2 Single Quots (Lonza) at 37° C. and 5% CO2 and experimentally tested at passage 7. 24 h prior experiment, cells were plated on a 6-well plate at 500,000 cells/mL. Two hours before the experiment, the cells were washed with PBS to remove residual growth media and then incubated with a starving media including EBM-2, 1% GlutaMax+0,2% Normicin. Treatments was conducted using media derived from HEK 293T cells transiently transfected for 24 h with different mini-RELN constructs in the presence of Lipofectamine 2000. […] Total protein levels were quantified via BCA assay. […] We detected pDAB1 (Tyr232; 1:1000, rabbit, #3325 Cell signaling), and Beta actin (1:5000, mouse, #66009-1-Ig, Proteintech. Antibodies were diluted using Intercept® (TBS) Blocking Buffer and incubated overnight at 4C under gentle shaking. Prior secondary antibody incubation, membranes were washes 2 times using TBS-T for 10 minutes. As secondary antibodies we used IR Dye 800n CW Goat-anti-Rabbit (925-32211, Licor) and IR Dye 680 CW Goat-anti-Mouse (925-68070, Licor) both diluted 1:10000 in blocking buffer for 1 h at room temperature under gentle shaking. Membranes were washed three times with TBS-T prior IR detection using Odyssey imager. […]

[3] = Heparin-sepharose affinity column chromatography, NaCl step gradient; format: binding
Method: We tested changes in binding to heparin of RELN variants chromatographically using an optimized version of a protocol previously published by our laboratory (1). Briefly, after equilibration of the heparin column (BioVision 6554-1) at R.T., columns were washed with five volumes of degassed 20 mM TRIS-HCl buffer (pH 7.5). Recombinant C-terminus RELN peptides were produced and purified by Innovagen (Sweden): (WT) […](SEQ ID NO:56), and (H3447R) […](SEQ ID NO:53). One mL of 50 μg/mL peptide (H3447 or WT, and H3447R) was recycled through the column five times and the last flow through collected for further analysis. The column was washed five times with the same buffer and the protein eluted using a 0.05 M step gradient of NaCl in 20 mM Tris-HCl (0-1M, one mL per fraction). To ensure the complete release of the protein, the column was washed with five M NaCl 20 mM Tris-HCl. Three independent experiments were conducted for C-terminus RELN WT and H3447R. All eluted fractions were analyzed spectroscopically by reading the absorbance at 280 nm using Nanodrop 2000 Spectrophotometer. Blank corrected fractions were subsequently analyzed using GraphPad Prism 8.
To assess Reelin-heparin binding affinity, Reelin variants were run on a heparin column with steps of 0.05M in a range of 0.05-1M NaCl over 20 1 mL column volumes in 20 mM Tris HCl, as described in Arboleda et. al 2019 (2). Sample fractions were eluted at an increasing NaCl step size to determine the ionic strength needed to disrupt the binding between Reelin and heparin. Therefore, the stronger the interaction, the higher concentration of salt would be needed to disrupt the bond.

[4] = biological target: T1, VLDLr (Homo sapiens, UniProt P98155); experiment: ELISA cell-free binding of RELN variants to VLDLr
T1 construct: purchased R&D 8444-VL
Method: (§1) Enzyme-linked immunosorbent assay (ELISA) was used to quantify changes in binding of RELN variants (media-derived full-length or CTR-RELN) to either VLDLr or ApoEr2 following an optimized version of a previously published protocol (6). Briefly, ELISA strips (DY008, R&D Systems) were coated with one ng/μL (100 μL/well) of VLDLr (8444-VL, R&D) or ApoEr2 (TP320903, OnGene) receptors diluted in 25 mM Tris HCl, 140 mM NaCl, […], two mM CaCl2), pH 7.4 (TBS-C buffer). After 18 h at four ° C. incubation, plates were blocked one h with three % BSA (22070008-6, Bioworld), 0.05% Tween-20 (Sigma Aldrich) TBS-C buffer. We assessed binding via incubation with 100 μL/well of serial dilutions of recombinant RELN protein (Ser1221-Gln2666, 8546-MR-050, R&D) or RELN variants in TBS-C buffer for one hour at room temperature. For detection, we used goat anti-mouse RELN primary antibody (LS-C793521-100, LS-Bio, 1:2,000, 100 μL/well) as primary antibody for one h at R.T. and (1:10,000; 100 μL/well, donkey anti-goat IgG H&L, HRP, ab6885, Abcam) as secondary antibody for 30 min. at R.T. Between each of the previous steps, plates were washed four times with TBS-C buffer (200 μL/well). Plates were washed three times prior to initiating the colorimetric reaction (DY008, R&D Systems). Stop solution (50 μL/well, DY008, R&D Systems) was added upon five min. incubation and the absorbance of the samples was measured at 450 nm using the Synergy 2 microplate reader (BioTek Instruments). Processing and analysis of the data was done using Gen5 1.11 software and GraphPad Prism, respectively.

[5] = biological target: T2, Aβ42 (Homo sapiens, UniProt P05067); experiment: Thioflavin T (ThT) Aβ aggregation assay; format: biochemical; conditions: Aβ42 55 μM, 10 μM peptide, vs Aβ alone
T2 construct: SensoLyte ThT O-Amyloid (1-42) Aggregation kit
T2 sequence (P05067 672-713 limits assumed): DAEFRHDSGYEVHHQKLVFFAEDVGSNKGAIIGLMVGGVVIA
Method: Therefore, the ThT assay can be used to quantify AB aggregation using previously developed methods (40).
We incubated CTR-RELN with Aβ and monitored aggregation using a ThioflavinT fluorescence assay normalized to the maximum ThT emission of Aβ only. We also assayed Aβ in the presence of morin, a known inhibitor (41), as a […]. Long and short WT and H3447R RELN CTR peptides were included to better understand the potential role of the H3447R mutation in amyloid pathology (FIGS. 14 and 15. Negative controls included long and short RELN CTR peptides with neutrally charged AAs (histidines) in place of basic AAs in the alpha- and beta-GAG binding sites.
A Thioflavin T (ThT) assay was also performed using synthetic Reelin peptides to assess the differential effects of these proteins on Aβ42 aggregation in vitro using Thioflavin T (SensoLyte ThT O-Amyloid (1-42) Aggregation kit, catalog no. ΔS-72214). Aβ42 was added to a final concentration of 55 μM in solutions of 10 μM of Reelin peptide variants in a transparent, no-binding 96-well plate. Samples were then mixed with 2 mM Thioflavin T dye and fluorescence was read at excitation wavelength/emission wavelength (Ex/Em)=440/484 nm at intermittent time intervals over 2 h. The plate was kept at 37° C. with 15 s shaking between reads. […] In general, it appears that the RELN Cterm domain is highly unstructured. […] If the mini-RELN includes the C-term domain only without a receptor binding domain then the protection will not involve signaling, but will still involve direct interactions with tau. If the mini-RELN includes the C-term domain and the receptor binding domain, it will have at least two protective mechanisms, namely RELN signaling and direct interactions with tau.

[6] = biological target: T3, APOER2 (Homo sapiens, UniProt Q14114); experiment: ELISA cell-free binding of RELN variants to ApoEr2
T3 construct: purchased OnGene (so in the source)
T3 sequence (Q14114 33-963): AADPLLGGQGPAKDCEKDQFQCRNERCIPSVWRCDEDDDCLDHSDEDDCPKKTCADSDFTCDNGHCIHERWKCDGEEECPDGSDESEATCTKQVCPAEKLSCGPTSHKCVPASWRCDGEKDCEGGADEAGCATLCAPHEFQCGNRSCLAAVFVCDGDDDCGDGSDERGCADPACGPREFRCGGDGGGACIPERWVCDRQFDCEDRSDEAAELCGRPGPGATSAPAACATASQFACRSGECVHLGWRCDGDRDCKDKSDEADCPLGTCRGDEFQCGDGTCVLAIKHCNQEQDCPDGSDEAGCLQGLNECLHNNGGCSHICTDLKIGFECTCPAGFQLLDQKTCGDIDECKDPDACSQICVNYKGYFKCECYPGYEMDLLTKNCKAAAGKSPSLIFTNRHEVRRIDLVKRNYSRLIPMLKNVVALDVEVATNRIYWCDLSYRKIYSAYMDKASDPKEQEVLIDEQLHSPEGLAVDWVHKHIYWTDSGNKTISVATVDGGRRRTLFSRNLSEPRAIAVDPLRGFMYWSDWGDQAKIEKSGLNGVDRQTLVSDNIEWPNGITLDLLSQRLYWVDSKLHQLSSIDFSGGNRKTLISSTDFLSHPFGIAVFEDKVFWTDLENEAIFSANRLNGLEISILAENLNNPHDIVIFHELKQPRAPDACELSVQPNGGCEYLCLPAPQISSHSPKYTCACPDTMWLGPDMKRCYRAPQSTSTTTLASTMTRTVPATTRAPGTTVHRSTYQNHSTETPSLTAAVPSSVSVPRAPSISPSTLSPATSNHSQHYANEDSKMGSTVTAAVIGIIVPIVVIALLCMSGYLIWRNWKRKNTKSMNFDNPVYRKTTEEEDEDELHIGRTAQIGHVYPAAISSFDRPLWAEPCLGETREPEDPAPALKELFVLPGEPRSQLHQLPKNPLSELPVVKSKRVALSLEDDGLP
Method: as §1

[7] = Isothermal titration calorimetry (ITC) of CTR-RELN with heparin; format: binding; conditions: titrated with 5 μM heparin, vs WT

Substance: RKQNYMMNFSRQHGLRHFYNRRRR [WT short]
- GFP expression from mRNA cargo [1]: increase in expression

Substance: IL2signalpeptide-6XHistag(SEQ ID NO: 62)-hReelin(AALeu1220-Ile2660) C-term-REELIN H3447R [225SU]
- pDAB1 / Dab1 signaling activation [2]: efficacy

Substance: RKQNYMMNFSRQHGLRHFYNRRRRSLRRYP [CTR-RELN WT]
- NaCl concentration of peak eluted fraction from heparin column ([3]; 0.05 M NaCl step gradient in 20 mM Tris HCl, UV 280 nm): 0.55 M NaCl
- binding to and release from heparin column ([3]; affinity chromatography, NaCl gradient): bound to heparin
- binding to VLDLr [4]: unable to bind directly
- Aβ aggregation (ThT fluorescence) ([5]; listed as Cterm domain of RELN): reduced amyloid aggregation
- Aβ aggregation (ThT fluorescence) ([5]; listed as RELN CTR): decreased amyloid aggregation; also recorded: significantly reduced amyloid aggregation; also recorded: reduces Aβ aggregation
- binding to APOER2 [6]: unable to bind directly

Substance: RKQNYMMNFSRQHGLRRFYNRRRR [H3447R short]
- thermodynamics of heparin interaction [7]: more negative Gibbs free energy
